Our source for the IC50 values is patent US20260115187A1, “TRICYCLIC SKELETON COMPOUND AND USE THEREOF IN PREPARATION OF ANTITUMOR DRUG” (ZHONGSHAN HOSPITAL, FUDAN UNIVERSITY, priority 2024, published 2026).

The test system of test [1] is MHCC97H KSR2 OE (97H cells overexpressing KSR2). The test is described as follows: Cell IC50 assay (CCK8 cell viability), MHCC97H KSR2 OE. The note with it: Homo sapiens. The class given is cell-based. The procedure:
(§1) (1) Cell Preparation: Hepatoma cells (PLC/PRF/5, sourced from the Chinese Academy of Sciences; MHCC97H, sourced from this research institute) in good growth condition are prepared. The cells are trypsinized, diluted, and seeded into 96-well cell culture plates. 1,000-3,000 cells are added per well. The plates are then placed in a cell culture incubator at 37° C. with 5% CO2. Drugs are added after the cells have adhered for 24 h.
(§2) (2) Drug Addition: The drugs are subjected to gradient dilution, typically setting 9 concentrations. Control groups containing no drug medium and medium containing only the drug solvent are also set up. The diluted drugs are added to the cell culture plates seeded the previous day. The plates are incubated for 72 h.
(§3) (3) CCK8 Assay for Cell Viability: CCK8 is mixed with culture medium at a 1:10 ratio. 100 μL of this mixture is added to each well of the cell culture plate. After incubating for 2-4 h, the OD values are measured using a microplate reader.
(§4) (4) Data Analysis: Based on the corresponding OD values, the data are compiled, IC50 curves are plotted, and the IC50 values are obtained.
(§5) (5) IC50 Verification: The theoretical IC50 value is identified from the IC50 curve. Drug concentrations at ½ times, 1 time, and 2 times this theoretical value are used for verification.

Test [2] has as its system PLC/PRF/5 KSR2 OE (PLC cells overexpressing KSR2). Put plainly: Cell IC50 assay (CCK8 cell viability), PLC/PRF/5 KSR2 OE. Format: cell-based. The note with it: Homo sapiens, read-out: IC50 value of cell viability, PLC/PRF/5 KSR2 OE (PLC cells overexpressing KSR2). The procedure:
as §1, §2, §3, §4, §5

The mark [3] stands for this setting: hepatoma cells, 72 h incubation, CCK8, read-out: IC50 value of cell viability, MHCC97H KSR2 OE (97H cells overexpressing KSR2).
Setting [4] is: PLC-PRF-5, hepatoma cells, 72 h incubation, CCK8.

Read-outs that look alike come from different tables or passages of the source.

Regarding `Cn1nc(C(=O)NCCCN2CCN(c3ccc(C(F)(F)F)cc3)CC2)c2c1-c1ccccc1SC2` [Compound 26], the IC50 is over 100 µM in test [1] (setting [3]) and 14 µM in test [2] (setting [4]).

For the molecule `Cn1nc(C(=O)NCC(F)(F)CN2CCC(N3CCCCC3)CC2)c2c1-c1ccccc1SC2` [Compound 34], the IC50 in test [1] (setting [3]) amounted to 14 µM; in test [2] (setting [4]), 12 µM.

Turning to `CN1CCN(C2CCN(CCCNC(=O)c3nn(C)c4c3COc3cc(Cl)c(C#N)cc3-4)CC2)CC1` [Compound 113], the IC50 in test [1] (setting [3]) stood at 0.8 µM; in test [2] (setting [4]), 1 µM.

As to `CN1CCN(C2CCN(CCCNC(=O)c3nn(C)c4c3COc3c(F)cccc3-4)CC2)CC1` [Compound 73], the IC50 in test [1] (setting [3]) came out at 3 µM; in test [2] (setting [4]), 12 µM.

In the case of `Cn1nc(C(=O)NCCCN2CCN(c3ccc(C#N)cc3)CC2)c2c1-c1ccccc1SC2` [Compound 29], the IC50 turned out to be 2 µM in test [1] (setting [3]) and 41 µM in test [2] (setting [4]).

Consider `Cn1nc(C(=O)NCCCN2CCC(N3CCC(F)(F)C3)CC2)c2c1-c1ccccc1SC2` [Compound 43], for which the IC50 in test [1] (setting [3]) was 43 µM; in test [2] (setting [4]) it was 41 µM.

For `CN1CCN(C2CN(CCCNC(=O)c3nn(C)c4c3CSc3cc(Cl)ccc3-4)C2)CC1` [Compound 97], the IC50 in test [1] (setting [3]) worked out at 5 µM; in test [2] (setting [4]) it was 7 µM.

Consider `CCN1CCN(C2CCN(CCCNC(=O)c3n[nH]c4c3COc3cc(C(F)(F)F)c(C#N)cc3-4)CC2)CC1` [Compound 132], for which the IC50 in test [1] (setting [3]) turned out to be 1 µM; in test [2] (setting [4]) it was 4 µM.

Consider `CN1CCCC12CN(CCCNC(=O)c1nn(C)c3c1CSc1ccccc1-3)C2` [Compound 100], for which the figures for the IC50 in test [1] (setting [3]) and in test [2] (setting [4]) were 71 µM and 61 µM, respectively.

On to `CN1CCN(C2CN(CCCNC(=O)c3nn(C)c4c3COc3cc(Cl)ccc3-4)C2)CC1` [Compound 86], for which the IC50 in test [1] (setting [3]) and in test [2] (setting [4]) was 6 µM throughout.

Consider `Cn1nc(C(=O)NCCCN2CCC(c3ccccc3)CC2)c2c1-c1ccccc1SC2` [Compound 31], for which the figures for the IC50 in test [1] (setting [3]) and in test [2] (setting [4]) were 19 µM and 21 µM, respectively.

Regarding `Cn1nc(C(=O)NCCCN2CCC(N3CCCCC3)CC2)c2c1-c1ccccc1SC2` [Compound 13], the IC50 in test [1] (setting [3]) and in test [2] (setting [4]) was 2 µM each time.

Take `CCN1CCN(C2CCN(CCCNC(=O)c3nn(C)c4c3CSc3ccccc3-4)CC2)CC1` [Compound 44]: the IC50 turned out to be 0.2 µM in test [1] (setting [3]) and 2 µM in test [2] (setting [4]).

On to `Cn1nc(C(=O)N2CC(CN3CCC(N4CCCC4)CC3)C2)c2c1-c1ccccc1SC2` [Compound 49], for which the IC50 in test [1] (setting [3]) and in test [2] (setting [4]) was 7 µM throughout.

Regarding `Cn1nc(C(=O)NCCCN2CCN(C3CC4(CCC4)C3)CC2)c2c1-c1ccccc1SC2` [Compound 4], the IC50 in test [1] (setting [3]) came out at 15 µM; in test [2] (setting [4]) it was 22 µM.

As for `CN1CCN(C2CN(CCCNC(=O)c3c4c(nn3C)-c3ccc(Cl)cc3OC4)C2)CC1` [Compound 118], the results for the IC50 in test [1] (setting [3]) and in test [2] (setting [4]) were 5 µM and 10 µM, respectively.

As for `CN1CCN(C2CN(CCCNC(=O)c3n[nH]c4c3COc3cc(Cl)ccc3-4)C2)CC1` [Compound 126], the IC50 came to 7 µM in test [1] (setting [3]) and 9 µM in test [2] (setting [4]).

Consider `CN1CCN(C2CCN(CCCNC(=O)c3nn(C)c4c3COc3cc(OC(F)(F)F)ccc3-4)CC2)CC1` [Compound 105], for which the IC50 in test [1] (setting [3]) is 3 µM; in test [2] (setting [4]), 4 µM.

Turning to `CC(CNC(=O)c1nn(C)c2c1CSc1ccccc1-2)CN1CCN(c2ccccc2)CC1` (stereo not drawn) [Compound 40], the IC50 in test [1] (setting [3]) was over 100 µM; in test [2] (setting [4]) it was 21 µM.

Consider `CN1CCN(C2CCN(CCCNC(=O)c3c4c(nn3C)-c3cc(C#N)c(Cl)cc3OC4)CC2)CC1` [Compound 122], for which the figures for the IC50 in test [1] (setting [3]) and in test [2] (setting [4]) were 5 µM and 4 µM, respectively.

Take `CN1CCN(C2CCN(CCCNC(=O)c3nn(C)c4c3COc3cc(Cl)c(Br)cc3-4)CC2)CC1` [Compound 101]: the IC50 in test [1] (setting [3]) and in test [2] (setting [4]) was 1 µM each time.

For the molecule `Cn1nc(C(=O)NCCCN2CCN(c3cccc(Cl)c3)CC2)c2c1-c1ccccc1SC2` [Compound 24], the IC50 in test [1] (setting [3]) was determined as 39 µM; in test [2] (setting [4]), 18 µM.

As to `CCN1CCN(C2CN(C3CC(CNC(=O)c4nn(C)c5c4CSc4ccccc4-5)C3)C2)CC1` (stereo not drawn) [Compound 80], the IC50 was found to be 8 µM in test [1] (setting [3]) and 28 µM in test [2] (setting [4]).

For the molecule `Cn1nc(C(=O)NCCCN2CCN(c3ccccn3)CC2)c2c1-c1ccccc1SC2` [Compound 19], the IC50 in test [1] (setting [3]) and in test [2] (setting [4]) was 40 µM each time.

As to `Cn1nc(C(=O)NCCCN2CCC(N3CCOCC3)CC2)c2c1-c1ccccc1SC2` [Compound 42], the IC50 in test [1] (setting [3]) stood at 39 µM; in test [2] (setting [4]), 43 µM.

Take `CN1CCN(C2CCN(CCCNC(=O)c3nn(C)c4c3COc3cc(-c5cn[nH]c5)ccc3-4)CC2)CC1` [Compound 127]: the IC50 in test [1] (setting [3]) was 4 µM; in test [2] (setting [4]), 8 µM.

`CN1CCN(C2CCN(CCCNC(=O)c3nn(C)c4c3COc3cc(C(F)(F)F)ccc3-4)CC2)CC1` [Compound 91]: the IC50 in test [1] (setting [3]) amounted to 4 µM; in test [2] (setting [4]), 2 µM.

For the molecule `CN(CCCN1CCN(C2CCCCC2)CC1)C(=O)c1nn(C)c2c1CSc1ccccc1-2` [Compound 12], the IC50 in test [1] (setting [3]) is 86 µM; in test [2] (setting [4]), 56 µM.

On to `Cn1nc(C(=O)NCCCN2CCN(C3CCCCC3)CC2)c2c1-c1ccccc1S(=O)(=O)C2` [Compound 7], for which the figures for the IC50 in test [1] (setting [3]) and in test [2] (setting [4]) were 88 µM and 85 µM, respectively.

Consider `Cn1nc(C(=O)NCCCN2CCC(N3CCC3)CC2)c2c1-c1ccccc1SC2` [Compound 47], for which the IC50 in test [1] (setting [3]) stood at 4 µM; in test [2] (setting [4]), 2 µM.

Take `CN(C)CC1CCN(CCCNC(=O)c2nn(C)c3c2CSc2ccccc2-3)C1` (stereo not drawn) [Compound 53]: the IC50 in test [1] (setting [3]) worked out at 63 µM; in test [2] (setting [4]) it was 92 µM.

For the molecule `Cn1nc(C(=O)NCCCN2CCN(C3CCC(F)(F)CC3)CC2)c2c1-c1ccccc1SC2` [Compound 1], the IC50 came out at 41 µM in test [1] (read-out: IC50 value of cell viability, MHCC97H KSR2 OE (97H cells overexpressing KSR2)) and 45 µM in test [2] (PLC-PRF-5, 72 h).

Take `Cn1nc(C(=O)NCC(F)(F)CN2CCN(c3ccccc3)CC2)c2c1-c1ccccc1SC2` [Compound 23]: the IC50 in test [1] (setting [3]) and in test [2] (setting [4]) was 8 µM each time.

On to `Cc1ccc2c(c1)OCc1c(C(=O)NCCCN3CCC(N4CCN(C)CC4)CC3)nn(C)c1-2` [Compound 120], for which the IC50 turned out to be 10 µM in test [1] (setting [3]) and 8 µM in test [2] (setting [4]).

For `CCN1CCN(C2CN(CCCNC(=O)c3nn(C)c4c3CSc3cc(Cl)ccc3-4)C2)CC1` [Compound 109], the IC50 in test [1] (setting [3]) amounted to 10 µM; in test [2] (setting [4]), 7 µM.

Turning to `CN1CCN(C2CCN(CCCNC(=O)c3nn(C)c4c3COc3cc(-c5cnn(C)c5)ccc3-4)CC2)CC1` [Compound 95], the IC50 in test [1] (setting [3]) and in test [2] (setting [4]) was 2 µM in each case.

In the case of `Cn1nc(C(=O)NCCCN2CC(N3CC[C@H](O)C3)C2)c2c1-c1ccc(Cl)cc1OC2` [Compound 104], the results for the IC50 in test [1] (setting [3]) and in test [2] (setting [4]) were 41 µM and 30 µM, respectively.

As to `Cn1nc(C(=O)NCCCN2CCN(c3ncccn3)CC2)c2c1-c1ccccc1SC2` [Compound 28], the IC50 in test [1] (setting [3]) stood at 31 µM; in test [2] (setting [4]) it was 11 µM.

Regarding `CCN1CCN(C2CN(CCCNC(=O)c3nn(C)c4c3CSc3ccccc3-4)C2)CC1` [Compound 81], the IC50 in test [1] (setting [3]) is 11 µM; in test [2] (setting [4]) it was 26 µM.
